Laboratory results published in patent US7939057B2, “Methods and compositions for modulating the mobilization of stem cells” (Mount Sinai School of Medicine, priority 2006, dated 2011).
Counter-ions that a name gives are not always drawn. Marks after values point to notes of the source that are not given here.

Experiments:
hematopoietic progenitor = assay: AMD3100-induced hematopoietic progenitor mobilization (stem cell egress); type: in vivo, C57BL/6 mice
Procedure: Studies were done to determine the effect of destruction of dopaminergic and noradrenergic neurons on stem cell egress. In these studies, newborn C57BL/6 mice were injected subcutaneously with 6OHDA (100 mg/kg, Sigma) or vehicle (normal saline) on postnatal days 2, 4, 6, 8, and 9. Hematopoietic progenitor mobilization was induced at 34 weeks of age, by subcutaneous injection of AMD3100 (5 mg/kg) in normal saline. Peripheral blood was harvested retroorbitally one hour post injection. P-value was calculated using two-tailed Student's t-test assuming unequal variances.
Studies were done to determine the effect of the beta agonist clenbuterol on stem cell egress. In this study, all drugs were dissolved in normal saline (0.9% w/v NaCl), with a delivery volume of 10 μL/g body mass. 10 μl/g saline i.p. or 2 mg/kg clenbuterol i.p. were given to adult (8-10 week old) C57BL6 mice 1 hour prior to hematopoietic progenitor mobilization induced by […] s.c. Peripheral blood was harvested retroorbitally one hour post AMD3100 injection. P-value was calculated using two-tailed Student's t-test assuming unequal variances.

[1] = tested on: hematopoietic stem and progenitor cells (HSPCs); assay: G-CSF-induced mobilization of hematopoietic progenitors (circulating CFU-C); type: in vivo, mice; details: for G-CSF-induced mobilization with clenbuterol: clenbuterol 2 mg/kg/day i.p. two days before and during G-CSF
Procedure: (§1) To induce HSPC mobilization, mice were injected with recombinant human G-CSF (Filgrastim, Amgen, Thousand Oaks, Calif., 250 μg/kg/day, every 12 hours, 8 divided doses, s.c.) in PBS supplemented with 0.1% endotoxin free bovine serum albumin (BSA) or fucoidan (Sigma; 2 doses of 100 mg/kg with 2 h interval, i.p.) in PBS. Blood was harvested 3 h (G-CSF) or 1 h (fucoidan). CFU-C assays were carried out as previously described (Katayama, Y., and Frenette, P. S. (2003). Galactocerebrosides are required postnatally for stromal-dependent bone marrow lymphopoiesis. Immunity 18, 789-800).
A chronic guide cannula (1.0 mm) was implanted stereotaxically into the lateral ventricle (coordinates AP, −0.7 mm; DV, −2.4 mm; ML, 1.5 mm, from bregma). One week after implantation, mice received a reduced dose of G-CSF (25 μg/kg daily for 4 doses) either by ICV infusion (rate: 0.4 μL/min) or by s.c. injection.
(§2) Newborn C57BL/6 mice were injected s.c. with 6OHDA (100 mg/kg, Sigma) or vehicle (saline) on postnatal days 2, 4, 6, 8 and 9. HSPC mobilization was induced at 3 weeks of age. For SNS disruption in adult C57BL6 mice, 4 week-old animals were injected i.p. with 2 doses of 6OHDA or vehicle, 100 mg/kg on day 0, 250 mg/kg on day 2, and G-CSF treatment was begun on day 5. For β-adrenergic receptor blockade, 4 week-old C57BL/6 mice were treated with propranolol (0.5 g/L in drinking water, Sigma) or control pure water for 3 weeks prior to mobilization. For rescue experiments, clenbuterol (2 mg/kg/day, i.p.) was injected starting day −2 prior to and continued during G-CSF treatment.

[2] = tested on: catecholaminergic neurons; assay: Tissue catecholamines after 6-hydroxydopamine treatment (HPLC, heart); type: in vivo, C57BL/6 mice; details: 5 week-old C57BL6 mice treated perinatally with 6OHDA, n=3, p<0.05 vs PBS
Procedure: as §2
Hearts from 5 week-old C57BL6 mice treated perinatally with 6-hydroxydopamine (6OHDA) or PBS control were homogenized in 0.1 M trichloroacetic acid containing 10 mM sodium acetate, 0.1 mM EDTA, 1 μM isoproterenol (as internal standard), and 10.5% methanol (pH 3.8). Catecholamine levels were determined by HPLC at the Neurochemistry Core Lab, Vanderbilt University's Center for Molecular Neuroscience research (Nashville, Tenn.). * p<0.05 compared with PBS control. n=3 mice.

circulating tumor cells = details: AMD3100 5 mg/Kg, blood 1 h later; planned experiment
Description: Luciferase expression will allow us to monitor distant metastases whereas GFP expression will permit to quantify the number of circulating tumor cells under baseline conditions and following treatment with stem cell “mobilizers”. Firstly, we will evaluate the effect of CXCR4 inhibition, using the specific antagonist AMD3100 on circulating tumor cells. Blood from NOD/SCID mice bearing tumors (day 35 for PC3lucGFP, day 15 for PC3MlucGFP) will be harvested at baseline to evaluate steady-state levels of circulating tumor cells. Mice will then be injected with AMD3100 at a dose of 5 mg/Kg and blood will be harvested 1 h later to evaluate the number of circulating tumor cells. […] To quantify the absolute counts of tumor cells, we will determine the number of circulating nucleated cells using an automatic cell counter (available in the PI's laboratory), and the proportion of GFP+ cells will be evaluated by flow cytometry in which a large sampling (>500,000 events) will be acquired owing to the rarity of circulating tumor cells.

norepinephrine = assay: Norepinephrine turnover in hearts after AMPT; type: in vivo, mice; details: AMPT 300 mg/kg, mean±sem, n=4-5
Procedure: FIG. 11. Norepinephine turnover in tissues following G-CSF administration in Cgt littermates. • To assess turnover rate, Cgt were administered the catecholamine synthesis inhibitor α-methyl-p-tyrosine (AMPT, 300 mg/kg, Sigma) or were left untreated. Animals were sacrificed 4 h after AMPT injection. Hearts were rapidly removed, weighed, frozen in liquid nitrogen and stored at −80° C. for norepinephrine measurements. NE levels were determined by HPLC at the Neurochemistry Core Lab, Vanderbilt University's Center for Molecular Neuroscience Research (Nashville, Tenn.). Under steady-state conditions, the decline of norepinephrine (NE) reflects the synthesis rate and the sympathetic tone. n=4-5 mice per group; * p<0.05.
Decline in tissue levels of norepinephrine obeys first order kinetics (Brodie, B. B., Costa, E., Dlabac, A., Neff, N. H., and Smookler, H. H. (1966). Application of steady state kinetics to the estimation of synthesis rate and turnover time of tissue catecholamines. J Pharmacol Exp Ther 154, 493-498): […]

SDF-1 = SDF-1 secretion by stromal cell line MS-5 (ELISA); type: cell-based; details: 72 h exposure of MS-5 cells
Description: Studies were also done to determine the effect of norepinephrine or a beta receptor agonist on SDF-1 secretion by a stromal cell line and to determine if there is a correlation with stem cell egress. […] This corresponds with an increase in the stem cell egress.

[3] = tested on: hematopoietic stem and progenitor cells (HSPCs); assay: Fucoidan-induced mobilization of hematopoietic progenitors (circulating CFU-C); type: in vivo; details: Cgt−/− mice; 2 doses of 100 mg/kg i.p.
Procedure: as §1

## NCCc1cc(O)c(O)cc1O [6OHDA, 6-hydroxydopamine]
Hematopoietic progenitor; C57BL/6 mice given 6OHDA 100 mg/kg s.c. postnatal days 2, 4, 6, 8, 9, AMD3100 5 mg/kg s.c. at 34 weeks of age, blood one hour post injection
  stem cell egress induced by AMD3100: decreased in a dose dependent manner
[1]; 6OHDA-treated adult C57BL/6 mice
  G-CSF-elicited mobilization: significantly reduced
[1]; perinatally 6OHDA-lesioned mice vs vehicle littermates
  number of HSPCs mobilized by G-CSF: dramatically reduced
[1]; perinatally 6OHDA-treated mice, steady-state BM
  baseline CFU-C counts per bone: did not alter
[2]
  Dopamine: 10 ± 10* pmol/mg tissue
  Epinephrine: 41 ± 20* pmol/mg tissue
  Norepinephrine: 49 ± 10* pmol/mg tissue

## c1cc(CN2CCCNCCNCCCNCC2)ccc1CN1CCCNCCNCCCNCC1 [AMD3100, 1,1′-[1,4-phenylene-bis(methylene)]-bis(1,4,8,11-tetra-azacyclotetradecane) octahydrochloride dehydrate]
Circulating tumor cells
  number of circulating tumor cells: will increase the number of circulating tumor cells

## CC(N)(Cc1ccc(O)cc1)C(=O)O (stereo not drawn) [AMPT, α-methyl-p-tyrosine]
norepinephrine; Cgt+/+, Cgt+/− mice
  Level after AMPT inhibition, 4 h (norepinephrine, heart): 198 ± 38 pg/mg wet weight
norepinephrine; Cgt−/− mice
  Level after AMPT inhibition, 4 h (norepinephrine, heart): 335 ± 32 pg/mg wet weight

## CC(C)NCC(O)c1ccc(O)c(O)c1 (stereo not drawn) [Isoproterenol]
SDF-1
  SDF-1 secretion: decreased in a dose-dependent manner

## CC(C)(C)NCC(O)c1cc(Cl)c(N)c(Cl)c1 (stereo not drawn) [clenbuterol]
Hematopoietic progenitor; adult C57BL6 mice, clenbuterol 2 mg/kg i.p. 1 hour prior to AMD3100 s.c., blood one hour post AMD3100
  stem cell egress induced by AMD3100 with clenbuterol: boost stem cell egress in a dose dependent manner
[1]; Dbh+/− controls
  G-CSF-induced mobilization with clenbuterol: further enhanced mobilization
[1]; Dbh−/− mice
  G-CSF-induced mobilization with clenbuterol: rescued in part the mobilization defect
[1]; same dose schedule, no G-CSF, data not shown
  mobilization by clenbuterol by itself: did not trigger mobilization

## NC[C@H](O)c1ccc(O)c(O)c1 [norepinephrine]
SDF-1
  SDF-1 secretion: decreased in a dose-dependent manner

## CC(C)NCC(O)COc1cccc2ccccc12 (stereo not drawn) [propranolol, 1-[(1-Methylethyl)amino]-3-(1-naphthalenyloxy)-2-propanol]
[1]; C57BL6 mice treated for three weeks with propranolol (0.5 g/L in drinking water)
  reduction of the number of HSPCs elicited by G-CSF: > 20%

## fucoidan
[3]
  CFU-C mobilization by fucoidan: not mobilized
